Reference: PubChem BioAssay (NCI)
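Each compound was tested at five concentrations against cells in 96-well plates for 48 hours. TGI denotes the concentration required for complete inhibition of growth.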

Key:
Assay in all cases: DTP human tumour cell line panel, 48 h
HCT-15 colon = tested on: HCT-15 colon
SN12C renal = tested on: SN12C renal
OVCAR-8 ovarian = tested on: OVCAR-8 ovarian
MALME-3M melanoma = tested on: MALME-3M melanoma
HT29 colon = tested on: HT29 colon
SR leukemia = tested on: SR leukemia
SK-MEL-2 melanoma = tested on: SK-MEL-2 melanoma
MDA-MB-435 = tested on: MDA-MB-435
OVCAR-4 ovarian = tested on: OVCAR-4 ovarian
MDA-N = tested on: MDA-N
HCC-2998 colon = tested on: HCC-2998 colon
M14 melanoma = tested on: M14 melanoma
HOP-62 NSCLC = tested on: HOP-62 NSCLC
UO-31 renal = tested on: UO-31 renal
COLO 205 colon = tested on: COLO 205 colon
K-562 leukemia = tested on: K-562 leukemia
LOX IMVI melanoma = tested on: LOX IMVI melanoma
PC-3 prostate = tested on: PC-3 prostate
SK-OV-3 ovarian = tested on: SK-OV-3 ovarian
BT-549 breast = tested on: BT-549 breast

| Compound | TGI (HCT-15 colon) | TGI (SN12C renal) | TGI (OVCAR-8 ovarian) | TGI (MALME-3M melanoma) | TGI (HT29 colon) | TGI (SR leukemia) | TGI (SK-MEL-2 melanoma) | TGI (MDA-MB-435) | TGI (OVCAR-4 ovarian) | TGI (MDA-N) | TGI (HCC-2998 colon) | TGI (M14 melanoma) | TGI (HOP-62 NSCLC) | TGI (UO-31 renal) | TGI (COLO 205 colon) | TGI (K-562 leukemia) | TGI (LOX IMVI melanoma) | TGI (PC-3 prostate) | TGI (SK-OV-3 ovarian) | TGI (BT-549 breast) |
| --- | --- | --- | --- | --- | --- | --- | --- | --- | --- | --- | --- | --- | --- | --- | --- | --- | --- | --- | --- | --- |
| CSC(=NCCCCN=C(NS(=O)(=O)c1ccc(Cl)cc1)SC)NS(=O)(=O)c1ccc(Cl)cc1 | > 100 µM | > 100 µM | > 100 µM | > 100 µM | > 100 µM | > 100 µM | > 100 µM | > 100 µM | > 100 µM | > 100 µM | > 100 µM | > 100 µM | > 100 µM | > 100 µM | > 100 µM | > 100 µM | > 100 µM | > 100 µM |  |  |
| CCOC(=O)c1nc2ccccc2nc1NCc1ccc(OC)cc1 | > 100 µM |  | > 100 µM | > 100 µM | > 100 µM | > 100 µM |  | > 100 µM | > 100 µM |  | > 100 µM |  | > 100 µM | > 100 µM | > 100 µM | > 100 µM | > 100 µM |  | > 100 µM | > 100 µM |
| COC1=NC(NC2OCC(O)C(O)C2O)=C(NC(C)=O)CN1C (stereo not given) | > 100 µM |  | > 100 µM | > 100 µM | > 100 µM |  | > 100 µM | > 100 µM | > 100 µM | > 100 µM | > 100 µM | > 100 µM |  | > 100 µM | > 100 µM | > 100 µM | > 100 µM |  | > 100 µM | > 100 µM |
| CC(C)OCC(O)COc1ccc2ccc(=O)oc2c1 (stereo not given) | > 100 µM | > 100 µM | > 100 µM | > 100 µM | > 100 µM |  |  | > 100 µM | > 100 µM | > 100 µM | > 100 µM | > 100 µM | > 100 µM | > 100 µM | > 100 µM | > 100 µM | > 100 µM | > 100 µM | > 100 µM |  |
| COC(=O)N/N=C(/CCN1CCCC1)CC(c1ccccc1)c1c(O)c2ccccc2oc1=O (stereo not given) | > 100 µM | > 100 µM | > 100 µM | > 100 µM | > 100 µM | > 100 µM | > 100 µM |  | > 100 µM |  | > 100 µM | > 100 µM | > 100 µM | > 100 µM | > 100 µM | > 100 µM | > 100 µM |  | > 100 µM |  |
| OC(c1cccnc1)C(F)(F)c1nc2ccccc2o1 (stereo not given) | > 100 µM |  | > 100 µM |  | > 100 µM | > 100 µM | > 100 µM | > 100 µM | > 100 µM |  | > 100 µM |  | > 100 µM | > 100 µM | > 100 µM | > 100 µM | > 100 µM | > 100 µM |  | > 100 µM |
| O=C(Cn1cc(-c2ccccc2)nn1)NC1CCCC1 | > 100 µM | > 100 µM | > 100 µM | > 100 µM | > 100 µM | > 100 µM | > 100 µM | > 100 µM | > 100 µM |  | > 100 µM | > 100 µM | > 100 µM |  | > 100 µM | > 100 µM | > 100 µM | > 100 µM |  | > 100 µM |
| O=C(O)C(Cc1c[nH]c2ccccc12)N=Cc1nc(-c2ccccc2)oc1O (stereo not given) | > 100 µM | > 100 µM | > 100 µM | > 100 µM | > 100 µM | > 100 µM | > 100 µM |  | > 100 µM |  | > 100 µM | > 100 µM | > 100 µM | > 100 µM | > 100 µM | > 100 µM | > 100 µM |  | > 100 µM |  |
| O=C(O)C1(C(=O)O)CC1(C(=O)O)C(=O)O | > 100 µM | > 100 µM | > 100 µM | > 100 µM | > 100 µM | > 100 µM | > 100 µM |  | > 100 µM |  | > 100 µM | > 100 µM | > 100 µM | > 100 µM | > 100 µM | > 100 µM | > 100 µM | > 100 µM | > 100 µM | > 100 µM |
| Cc1cc2c(cc1Cl)SC(N/N=C(\N)c1ccc(Cl)cc1)=NS2(=O)=O | > 100 µM | > 100 µM | > 100 µM | > 100 µM | > 100 µM |  |  | > 100 µM | > 100 µM |  | > 100 µM | > 100 µM | > 100 µM | > 100 µM | > 100 µM | > 100 µM | > 100 µM | > 100 µM | > 100 µM | > 100 µM |
| COc1ccc(CNC2=C(NC(C)=O)C(=O)c3ccccc3C2=O)cc1 | > 50 µM | > 50 µM | > 50 µM | 15.2 µM | > 50 µM | > 50 µM | 19.2 µM |  | 15.1 µM |  | > 50 µM | > 50 µM | > 50 µM | 40.2 µM | 16.4 µM | 26.4 µM | 18.7 µM |  | > 50 µM |  |
| O=C1c2cccnc2S(=O)N1Cc1ccccc1 (stereo not given) | > 100 µM | > 100 µM | > 100 µM | > 100 µM | > 100 µM | > 100 µM |  | > 100 µM | > 100 µM | > 100 µM | > 100 µM | > 100 µM |  | > 100 µM | > 100 µM | > 100 µM |  |  | > 100 µM | > 100 µM |
| Cc1ccc2c(=O)cc(-c3cccc4ccccc34)[nH]c2n1 | 1.73 µM | > 100 µM | 0.305 µM | 0.0495 µM | 0.0658 µM | > 100 µM | 2.47 µM |  | > 85.1 µM |  | 0.177 µM | > 100 µM | > 100 µM | > 55.4 µM | 0.676 µM | > 36.8 µM | 9.5 µM | > 43 µM | 2.64 µM | > 94.6 µM |
